Experimental data from patent US8673966B2, “ALDH-2 inhibitors in the treatment of addiction” (Gilead Sciences, Inc., priority 2011, dated 2014).

Tests used:
Type in all cases: biochemical
hMAO-B = hMAO-B (Homo sapiens (Human), UniProt P27338); assay: MAO-B assay (luminogenic MAO substrate); details: microsome contained MAO-B, 16 uM substrate, 20 min pre-incubation; unit inferred
Method: (§1) MAO assays included luminogenic MAO substrate, reaction buffers, Luciferin Detection and the reconstitution buffer with esterase. Standard MAO reaction mixtures included microsome contained MAO-A (2 ug) or MAO-B (10 ug), 160 uM substrate for MAO-A or 16 uM substrate for MAO-B, MAO-A buffer (100 mM Hepes buffer, pH 7.5, 5% glycerol) or MAO-B buffer (100 mM Hepes, pH 7.5, 5% glycerol, 10% dimethyl sulfoxide) in a final volume of 30 ul. After 20 minutes of pre-incubation of the enzyme with compounds, the reaction was initiated by adding enzyme substrate and the reaction was allowed to proceed for 60 minutes. Reconstituted Luciferin Detection Reagent (30 ul) was then added is added to simultaneously stop the MAO reaction and convert the methyl ester derivative to luciferin and produce light. The amount of light produced is directly proportional to the activity of MAO. The mixtures were further incubated for 20 minutes and activity of the enzyme was determined using Perkin-Elmer Envision Reader.
(§2) Note: IC50 refers to the concentration of a compound that inhibits a reaction by 50%. In the case of competitive inhibition, IC50=2Ki when the substrate is present at the Km concentration, as per the relationship: Ki=IC50/[1+(substrate concentration/Km)].

hMAO-A = hMAO-A (Homo sapiens (Human), UniProt P21397); assay: MAO-A assay (luminogenic MAO substrate); details: microsome contained MAO-A, 160 uM substrate, 20 min pre-incubation; unit inferred
Sequence of hMAO-A (P21397 whole entry): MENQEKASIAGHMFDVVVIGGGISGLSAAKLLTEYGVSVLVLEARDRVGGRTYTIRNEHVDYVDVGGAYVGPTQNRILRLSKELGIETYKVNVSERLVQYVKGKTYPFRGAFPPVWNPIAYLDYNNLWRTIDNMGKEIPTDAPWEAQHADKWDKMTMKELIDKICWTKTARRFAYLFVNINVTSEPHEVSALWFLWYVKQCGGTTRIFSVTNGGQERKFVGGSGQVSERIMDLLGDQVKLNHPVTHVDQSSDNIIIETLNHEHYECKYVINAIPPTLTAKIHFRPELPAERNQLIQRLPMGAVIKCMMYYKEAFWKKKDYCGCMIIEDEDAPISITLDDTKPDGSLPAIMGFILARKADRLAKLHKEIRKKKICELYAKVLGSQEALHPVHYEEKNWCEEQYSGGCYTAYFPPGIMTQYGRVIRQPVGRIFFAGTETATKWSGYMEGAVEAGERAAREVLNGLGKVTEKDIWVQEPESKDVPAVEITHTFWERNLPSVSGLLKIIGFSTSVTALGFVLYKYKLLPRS
Method: as §1, §2

recombinant human ALDH2 = recombinant human ALDH2 (Homo sapiens (Human), UniProt P05091); assay: ALDH2 assay (NADH formation); details: 10 nM recombinant human ALDH2, 150 uM formaldehyde, 60 min pre-incubation; read-out: IC50 hALDH2
Sequence of recombinant human ALDH2 (P05091 18-517): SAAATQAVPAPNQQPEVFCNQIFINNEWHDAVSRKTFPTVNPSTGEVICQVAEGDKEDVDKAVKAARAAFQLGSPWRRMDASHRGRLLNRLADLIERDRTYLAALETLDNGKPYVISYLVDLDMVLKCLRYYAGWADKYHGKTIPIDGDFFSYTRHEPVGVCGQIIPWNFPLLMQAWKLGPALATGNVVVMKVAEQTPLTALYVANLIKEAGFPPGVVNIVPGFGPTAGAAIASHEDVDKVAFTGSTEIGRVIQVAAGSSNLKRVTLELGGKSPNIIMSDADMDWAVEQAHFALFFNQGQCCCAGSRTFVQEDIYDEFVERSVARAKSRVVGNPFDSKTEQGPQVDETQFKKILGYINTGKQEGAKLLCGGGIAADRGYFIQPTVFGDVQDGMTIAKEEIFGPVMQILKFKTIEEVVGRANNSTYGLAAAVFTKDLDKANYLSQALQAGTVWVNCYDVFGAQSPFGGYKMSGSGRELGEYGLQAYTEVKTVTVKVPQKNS
Method: Standard ALDH2 reaction mixtures contained 150 uM formaldehyde, 2.5 mM NAD^+, 10 mM MgCl2 and 10 nM recombinant human ALDH2 in 50 mM Hepes buffer, pH 7.4, 0.01% Tween 20 in a final volume of 50 ul using 384-well plates. After 60 min of pre-incubation of compound with ALDH2 and formaldehyde, the reaction was started by adding NAD+ and the reaction mixture was allowed to proceed for 90 minutes. Activity of the enzyme was determined by monitoring NADH formation using Perkin-Elmer Envision Reader with excitation and emission wavelengths set at 340 and 460 nm, respectively.
as §2

Sequence of hMAO-B (P27338 whole entry): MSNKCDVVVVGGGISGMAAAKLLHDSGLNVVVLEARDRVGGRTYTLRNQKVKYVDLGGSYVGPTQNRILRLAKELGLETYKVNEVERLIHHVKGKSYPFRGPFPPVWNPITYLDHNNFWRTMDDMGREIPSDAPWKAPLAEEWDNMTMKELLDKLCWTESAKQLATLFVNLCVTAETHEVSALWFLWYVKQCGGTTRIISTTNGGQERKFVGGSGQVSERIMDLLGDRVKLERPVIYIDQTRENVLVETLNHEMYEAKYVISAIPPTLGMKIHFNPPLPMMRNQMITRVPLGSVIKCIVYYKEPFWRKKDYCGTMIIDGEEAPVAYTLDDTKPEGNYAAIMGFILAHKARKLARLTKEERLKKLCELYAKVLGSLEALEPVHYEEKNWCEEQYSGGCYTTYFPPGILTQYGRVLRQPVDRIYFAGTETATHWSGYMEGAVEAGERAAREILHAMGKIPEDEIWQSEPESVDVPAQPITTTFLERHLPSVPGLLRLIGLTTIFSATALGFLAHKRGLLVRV

| IC50 (hMAO-B) [µM] | IC50 (hMAO-A) [µM] | IC50 (recombinant human ALDH2) [nM] | Compound |
| --- | --- | --- | --- |
| > 130 | > 130 | 528 | CS(=O)(=O)Nc1ccc(-c2coc3cc(C#CC4(N)CCCCC4)ccc3c2=O)cc1 [N-(4-(7-((1-aminocyclohexyl)ethynyl)-4-oxo-4H-chromen-3-yl)phenyl)methanesulfonamide] |
| > 130 | > 130 | 47 | COCC#Cc1ccc2c(=O)c(-c3ccc(NS(C)(=O)=O)cc3)coc2c1 [N-(4-(7-(3-methoxyprop-1-ynyl)-4-oxo-4H-chromen-3-yl)phenyl)methanesulfonamide] |
| > 130 | > 130 | 6 | CC1(C(=O)N2CC(C#Cc3ccc4c(=O)c(-c5ccc(NS(C)(=O)=O)cc5)coc4c3)C2)CC1 [N-(4-(7-((1-(1-methylcyclopropanecarbonyl)-azetidin-3-yl)ethynyl)-4-oxo-4H-chromen-3-yl)phenyl)methanesulfonamide] |
| > 130 | > 130 | 9 | CC(C)(C)OC(=O)N1CC(C#Cc2ccc3c(=O)c(-c4ccc(NS(C)(=O)=O)cc4)coc3c2)C1 [tert-butyl 3-((3-(4-(methylsulfonamido)phenyl)-4-oxo-4H-chromen-7-yl)ethynyl)azetidine-1-carboxylate] |
| > 130 | > 130 | 35 | CN1CCC(C(=O)N2CC(C#Cc3ccc4c(=O)c(-c5ccc(NS(C)(=O)=O)cc5)coc4c3)C2)CC1 [N-(4-(7-((1-(1-methylpiperidine-4-carbonyl)azetidin-3-yl)ethynyl)-4-oxo-4H-chromen-3-yl)phenyl)methanesulfonamide] |
| > 130 | > 130 | 90 | CS(=O)(=O)Nc1ccc(-c2coc3cc(C#Cc4ccccn4)ccc3c2=O)cc1 [N-(4-(4-oxo-7-(pyridin-2-ylethynyl)-4H-chromen-3-yl)phenyl)methanesulfonamide] |
| > 130 | > 86.5 | 95 | Cn1cnc(C#Cc2ccc3c(=O)c(-c4ccc(NS(C)(=O)=O)cc4)coc3c2)c1 [N-(4-(7-((1-methyl-1H-imidazol-4-yl)ethynyl)-4-oxo-4H-chromen-3-yl)phenyl)methanesulfonamide] |
| > 130 | > 130 | 15 | Cc1ncc(C#Cc2ccc3c(=O)c(-c4ccc(NS(C)(=O)=O)cc4)coc3c2)n1C [N-(4-(7-((1,2-dimethyl-1H-imidazol-5-yl)ethynyl)-4-oxo-4H-chromen-3-yl)phenyl)methanesulfonamide] |
| > 130 | > 130 | 2.3 | CN(C(=O)OC(C)(C)C)C1(C(=O)N2CC(C#Cc3ccc4c(=O)c(-c5ccc(NS(C)(=O)=O)cc5)coc4c3)C2)CC1 [tert-butyl (1-(3-((3-(4-(methylsulfonamido)-phenyl)-4-oxo-4H-chromen-7-yl)ethynyl)azetidine-1-carbonyl)cyclopropyl)-methylcarbamate] |
| > 130 | > 130 | 6.5 | CS(=O)(=O)Nc1ccc(-c2coc3cc(C#CC4CCN(C(=O)C5CC5)CC4)ccc3c2=O)cc1 [N-(4-(7-((1-(cyclopropanecarbonyl)piperidin-4-yl)ethynyl)-4-oxo-4H-chromen-3-yl)phenyl)methanesulfonamide] |
| > 130 | > 130 | 16 | CC(C)(O)C(=O)N1CC(C#Cc2ccc3c(=O)c(-c4ccc(NS(C)(=O)=O)cc4)coc3c2)C1 [N-(4-(7-((1-(2-hydroxy-2-methylpropanoyl)-azetidin-3-yl)ethynyl)-4-oxo-4H-chromen-3-yl)phenyl)methanesulfonamide] |
| > 130 | > 130 | 5 | CS(=O)(=O)Nc1ccc(-c2coc3cc(C#CC4CN(C(=O)C5CC5(F)F)C4)ccc3c2=O)cc1 (stereo not drawn) [N-(4-(7-((1-(2,2-difluorocyclopropane-carbonyl)azetidin-3-yl)ethynyl)-4-oxo-4H-chromen-3-yl)phenyl)methanesulfonamide] |
| > 13 | > 13 | 329 | CS(=O)(=O)Nc1ccc(-c2coc3cc(C#Cc4ccccc4)ccc3c2=O)cc1 [N-(4-(4-oxo-7-(phenylethynyl)-4H-chromen-3-yl)phenyl)methanesulfonamide] |

Continued, compound first:

| Compound | IC50 (hMAO-B) [µM] | IC50 (hMAO-A) [µM] | IC50 (recombinant human ALDH2) [nM] |
| --- | --- | --- | --- |
| CS(=O)(=O)Nc1ccc(-c2coc3cc(C#CC4CN(C(=O)CO)C4)ccc3c2=O)cc1 [N-(4-(7-((1-(2-hydroxyacetyl)azetidin-3-yl)ethynyl)-4-oxo-4H-chromen-3-yl)phenyl)methanesulfonamide] | > 130 | > 130 | 15 |
| CC(C)n1cncc1C#Cc1ccc2c(=O)c(-c3ccc(NS(C)(=O)=O)cc3)coc2c1 [N-(4-(7-((1-isopropyl-1H-imidazol-5-yl)ethynyl)-4-oxo-4H-chromen-3-yl)phenyl)methanesulfonamide] | > 130 | > 130 | 7 |
| CC(C)(C)OC(=O)NC1(C(=O)N2CC(C#Cc3ccc4c(=O)c(-c5ccc(NS(C)(=O)=O)cc5)coc4c3)C2)CCC1 [tert-butyl 1-(3-((3-(4-(methylsulfonamido)-phenyl)-4-oxo-4H-chromen-7-yl)ethynyl)azetidine-1-carbonyl)-cyclobutylcarbamate] | > 130 | > 130 | 6 |
| CS(=O)(=O)Nc1ccc(-c2coc3cc(C#Cc4cccnc4)ccc3c2=O)cc1 [N-(4-(4-oxo-7-(pyridin-3-ylethynyl)-4H-chromen-3-yl)phenyl)methanesulfonamide] | > 130 | > 130 | 21 |
| CS(=O)(=O)Nc1ccc(-c2coc3cc(C#CC4CC4)ccc3c2=O)cc1 [N-(4-(7-(cyclopropylethynyl)-4-oxo-4H-chromen-3-yl)phenyl)methanesulfonamide] | > 13 | > 13 | 57.7 |
| CS(=O)(=O)Nc1ccc(-c2coc3cc(C#CC4CCNCC4)ccc3c2=O)cc1 [N-(4-(4-oxo-7-(piperidin-4-ylethynyl)-4H-chromen-3-yl)phenyl)methanesulfonamide] | > 130 | > 110 | 174 |
| COCCC(=O)N1CC(C#Cc2ccc3c(=O)c(-c4ccc(NS(C)(=O)=O)cc4)coc3c2)C1 [N-(4-(7-((1-(3-methoxypropanoyl)azetidin-3-yl)ethynyl)-4-oxo-4H-chromen-3-yl)phenyl)methanesulfonamide] | > 130 | > 130 | 8 |
| CC1(O)CC(C(=O)N2CC(C#Cc3ccc4c(=O)c(-c5ccc(NS(C)(=O)=O)cc5)coc4c3)C2)C1 (stereo not drawn) [N-(4-(7-((1-(3-hydroxy-3-methylcyclobutane-carbonyl)azetidin-3-yl)ethynyl)-4-oxo-4H-chromen-3-yl)phenyl)methanesulfonamide] | > 130 | > 130 | 5 |
| CC(C)(O)C#Cc1ccc2c(=O)c(-c3ccc(NS(C)(=O)=O)cc3)coc2c1 [N-(4-(7-(3-hydroxy-3-methylbut-1-ynyl)-4-oxo-4H-chromen-3-yl)phenyl)methanesulfonamide] | > 91 | > 91 | 2180 |
| CS(=O)(=O)Nc1ccc(-c2coc3cc(C#CC4CN(C(=O)OC5CCCC5)C4)ccc3c2=O)cc1 [cyclopentyl-3-((3-(4-(methylsulfonamido)phenyl)-4-oxo-4H-chromen-7-yl)ethynyl)azetidine-1-carboxylate] | > 130 | > 130 | 9 |
